The values that follow come from patent US8962825B2, “Hydroxamates as inhibitors of histone deacetylase” (GlaxoSmithKline Intellectual Property Development Limited, priority 2006, dated 2015).

Experiment [1] has as its target T1, histone deacetylase activity (HeLa nuclear extract).
T1 construct: Histone deacetylase activity from crude nuclear extract derived from HeLa cells was used for screening
Briefly: Histone deacetylase activity (Biomol Fluor de Lys HDAC fluorescent activity assay). The experiment is classed as biochemical. As to conditions: Fluor de Lys substrate. How it is done: The ability of compounds to inhibit histone deacetylase activities was measured using the commercially available HDAC fluorescent activity assay from Biomol. In brief, the Fluor de Lys™ substrate, a lysine with an epsilon-amino acetylation, is incubated with the source of histone deacetylase activity (HeLa nuclear extract) in the presence or absence of inhibitor. Deacetylation of the substrate sensitises the substrate to Fluor de Lys™ developer, which generates a fluorophore. Thus, incubation of the substrate with a source of HDAC activity results in an increase in signal that is diminished in the presence of an HDAC inhibitor.
Data are expressed as a percentage of the control, measured in the absence of inhibitor, with background signal being subtracted from all samples, as follows: % activity=[(S^i−B)/(S^o−B)]×100 where S^i is the signal in the presence of substrate, enzyme and inhibitor, S^o is the signal in the presence of substrate, enzyme and the vehicle in which the inhibitor is dissolved, and B is the background signal measured in the absence of enzyme.
(§1) IC50 values were determined by non-linear regression analysis, after fitting the results of eight data points to the equation for sigmoidal dose response with variable slope (% activity against log concentration of Compound), using Graphpad Prism software.
Histone deacetylase activity from crude nuclear extract derived from HeLa cells was used for screening. The preparation, purchased from 4C (Seneffe, Belgium), was prepared from HeLa cells harvested whilst in exponential growth phase. The nuclear extract was prepared according to the methodology described by J. D. Dignam, Nucl. Acid. Res., 1983, 11, 1475-1489, snap frozen in liquid nitrogen and stored at −80° C. The final buffer composition was 20 mM Hepes, 100 mM KCl, 0.2 mM EDTA, 0.5 mM DTT, 0.2 mM PMSF and 20% (v/v) glycerol.

The subject of another experiment is HeLa cells. The experiment in a line: HeLa cell inhibition assay (sulphorhodamine B cell viability). It is filed as cell-based. The note with it: Homo sapiens, 72 h, SRB. How it is done: HeLa cells growing in log phase were harvested and seeded at 1000 cells/well (200 μl final volume) into 96-well tissue culture plates. Following 24 h of cell growth cells were treated with Compounds (final concentration of 20 μM). Plates were then re-incubated for a further 72 h before a sulphorhodamine B (SRB) cell viability assay was conducted according to the methodology described by Skehan et al, J. Natl. Canc. Inst., 1990, 82, 1107-1112.
Data were expressed as a percentage inhibition of the control, measured in the absence of inhibitor, as follows:— % inhibition=100−[(S^i/S^o)×100] where S^i is the signal in the presence of inhibitor and S^o is the signal in the presence of DMSO.
as §1

The next experiment has as its system U937 cells. Briefly: U937 cell inhibition assay (WST-1 cell viability). The experiment is classed as cell-based. As to conditions: Homo sapiens, U-937, 72-96 h. How it is done: (§2) Cancer cell lines (U937 and HUT) growing in log phase were harvested and seeded at 1000-2000 cells/well (100 μl final volume) into 96-well tissue culture plates. Following 24 h of growth cells were treated with Compound. Plates were then re-incubated for a further 72-96 h before a WST-1 cell viability assay was conducted according to the suppliers (Roche Applied Science) instructions.
(§3) Data were expressed as a percentage inhibition of the control, measured in the absence of inhibitor, as follows: % inhibition=100−[(S^i/S^o)×100] where S^i is the signal in the presence of inhibitor and S^o is the signal in the presence of DMSO.
(§4) Dose response curves were generated from 8 concentrations (top final concentration 10 μM, with 3-fold dilutions), using 6 replicates.
(§5) IC50 values were determined by non-linear regression analysis, after fitting the results to the equation for sigmoidal dose response with variable slope (% activity against log concentration of Compound), using Graphpad Prism software.
(In general: Tetrazolium assays rely on reduction of a dye to a coloured formazan, in cell work by metabolically active cells.)

A further experiment has as its system HUT cells. The experiment in a line: HUT cell inhibition assay (WST-1 cell viability). As to conditions: 72-96 h. The experiment is classed as cell-based. How it is done: as §2, §3, §4, §5

Molecules are shown by their SMILES.

For the molecule `CC(C)C[C@H](NC1CCN(c2ncc(C(=O)NO)cn2)CC1)C(=O)O` [Example 2, N-{1-[5-(hydroxycarbamoyl)pyrimidin-2-yl]piperidin-4-yl}-L-leucine], in experiment [1], the half-maximal inhibitory concentration (IC50) (usually the concentration that gives 50% inhibition) was in the range of 101 to 1000 nM.
Turning to `O=C(NO)c1cnc(N2CCC(N[C@@H](CO)C(=O)OC3CCCC3)CC2)nc1` [Example 9], the results for the 50% inhibitory concentration (IC50) in the experiment on HeLa cells, in the experiment with U937 cells and in the experiment on HUT cells were > 3300 nM, 331 to 3300 nM and 331 to 3300 nM, respectively.
For the molecule `CC(C)(C)OCC(NCC1C2CN(c3ncc(C(=O)NO)cn3)CC12)C(=O)OC1CCCC1` (stereo not drawn) [Example 12], the figures for the half-inhibitory concentration (IC50) in the experiment on HeLa cells, in the experiment on U937 cells and with HUT cells were 331 to 3300 nM, < 330 nM and 331 to 3300 nM, respectively.
As to `O=C(NO)c1cnc(N2CC3C(CN[C@H](C(=O)O)C4CCCCC4)C3C2)nc1` (stereo partly drawn) [Example 15, (2S)-cyclohexyl[({3-[5-(hydroxycarbamoyl)pyrimidin-2-yl]-3-azabicyclo[3.1.0]hex-6-yl}methyl)amino]acetic acid], in experiment [1], the IC50 fell in the range of 101 to 1000 nM.
As to `CC(C)C[C@H](NCC1CCN(c2ncc(C(=O)NO)cn2)CC1)C(=O)OC1CCCC1` [Example 16], the IC50 with HeLa cells was 331 to 3300 nM; in the experiment on U937 cells it was < 330 nM; in the experiment with HUT cells, < 330 nM.
On to `O=C(NO)c1cnc(N2CCC(CN[C@H](C(=O)O)C3CCCCC3)CC2)nc1` [Example 19, (2S)-cyclohexyl[({1-[5-(hydroxycarbamoyl)pyrimidin-2-yl]piperidin-4-yl}methyl)amino]acetic acid], for which, in experiment [1], the concentration for half-maximal inhibition (IC50) was < 100 nM.
With `O=C(NO)c1cnc(N2CCC(CN[C@H](C(=O)OC3CCCC3)c3ccccc3)CC2)nc1` [Example 20], the IC50 with HeLa cells is 331 to 3300 nM; with U937 cells it was < 330 nM; in the experiment on HUT cells it was 331 to 3300 nM.
For the molecule `CC(C)(C)OC[C@H](NCC1CCN(c2ncc(C(=O)NO)cn2)CC1)C(=O)OC1CCCC1` [Example 22], the IC50 in the experiment with HeLa cells was 331 to 3300 nM; with U937 cells it was < 330 nM; with HUT cells it was < 330 nM.
For `O=C(NO)c1cnc(N2CCC(CN[C@@H](CO)C(=O)OC3CCCC3)CC2)nc1` [Example 24], the values for the 50% inhibitory concentration (IC50) in the experiment on HeLa cells, in the experiment on U937 cells and in the experiment with HUT cells were 331 to 3300 nM, < 330 nM and < 330 nM, respectively.
For the molecule `O=C(NO)c1cnc(N2CCC(CN[C@H](C(=O)OC3CCCC3)c3cccc4ccccc34)CC2)nc1` [Example 26], the values for the IC50 in the experiment on HeLa cells, in the experiment with U937 cells and in the experiment on HUT cells were > 3300 nM, 331 to 3300 nM and 331 to 3300 nM, respectively.
Take `CC(C)C[C@H](NCc1ccc(CNC2CCN(c3ncc(C(=O)NO)cn3)CC2)cc1)C(=O)O` [Example 28, N-{-4-[({1-[5-(hydroxycarbamoyl)pyrimidin-2-yl]piperidin-4-yl}amino)methyl]benzyl}-L-leucine]: the IC50 in experiment [1] was in the range of 101 to 1000 nM.
As to `O=C(NO)c1cnc(N2CCC(NCc3ccc(CN[C@H](C(=O)OC4CCCC4)c4ccccc4)cc3)CC2)nc1` [Example 30], in experiment [1], the IC50 was < 100 nM.
The same measure, in the same setting: then `O=C(NO)c1cnc(N2CCC(NCc3ccc(CN[C@H](C(=O)OC4CCCC4)c4ccccc4)cc3)CC2)nc1` [Example 32], with 101 to 1000 nM.
In the case of `O=C(NO)c1cnc(N2CCC(NCc3ccc(CN[C@H](C(=O)OC4CCCC4)c4ccccc4)cc3)CC2)nc1` [Example 34], the IC50 in experiment [1] is < 100 nM.
With `CC(C)C[C@H](NCc1ccc(CNCC2CCN(c3ncc(C(=O)NO)cn3)CC2)cc1)C(=O)OC1CCCC1` [Example 36], the IC50 with HeLa cells, in the experiment with U937 cells and in the experiment on HUT cells was < 330 nM in each case.
For the molecule `O=C(NO)c1cnc(N2CCC(CNCc3ccc(CN[C@H](C(=O)O)C4CCCCC4)cc3)CC2)nc1` [Example 39, (2S)-cyclohexyl[(4-{[({1-[5-(hydroxycarbamoyl)pyrimidin-2-yl]piperidin-4-yl}methyl)amino]methyl}benzyl)amino]acetic acid], the IC50 in experiment [1] is < 100 nM.
As to `CC(C)(C)OC[C@H](NCc1ccc(CNCC2CCN(c3ncc(C(=O)NO)cn3)CC2)cc1)C(=O)OC1CCCC1` [Example 40], the IC50 in the experiment on HeLa cells is 331 to 3300 nM; in the experiment with U937 cells it was < 330 nM; with HUT cells, < 330 nM.
For `O=C(NO)c1cnc(N2CCC(CNCc3ccc(CN[C@H](C(=O)OC4CCCC4)c4ccccc4)cc3)CC2)nc1` [Example 42], the half-maximal inhibitory concentration (IC50) with HeLa cells, with U937 cells and with HUT cells was < 330 nM throughout.
For `O=C(NO)c1cnc(N2CCC(CNCc3ccc(CN[C@@H](CO)C(=O)OC4CCCC4)cc3)CC2)nc1` [Example 44], the IC50 in the experiment on HeLa cells is 331 to 3300 nM; with U937 cells, < 330 nM; in the experiment with HUT cells, < 330 nM.
For the molecule `O=C(NO)c1cnc(N2CCC(CNCC3CCC(CN[C@H](C(=O)OC4CCCC4)C4CCCCC4)CC3)CC2)nc1` (stereo partly drawn) [Example 46, Cyclopentyl (2S)-cyclohexyl{[(4-{[({1-[5-(hydroxycarbamoyl)pyrimidin-2-yl]piperidin-4-yl}methyl)amino]methyl}cyclohexyl)methyl]amino}acetate], the results for the IC50 (in the experiment on U937 cells; in experiment [1]; in the experiment with HUT cells) were 331 to 3300 nM, 101 to 1000 nM and 331 to 3300 nM, respectively.
In the case of `O=C(NO)c1cnc(N2CCC(CNCC3CCC(CN[C@H](C(=O)O)C4CCCCC4)CC3)CC2)nc1` (stereo partly drawn) [Example 47, (2S)-cyclohexyl{[(4-{[({1-[5-(hydroxycarbamoyl)pyrimidin-2-yl]piperidin-4-yl}methyl)amino]methyl}cyclohexyl)methyl]amino}acetic acid], the IC50 in experiment [1] is < 100 nM.
`CC(C)C[C@H](NC1CCN(c2ccc(C(=O)NO)cc2)CC1)C(=O)OC1CCCC1` [Example 48, Cyclopentyl N-{1-[4-(hydroxycarbamoyl)phenyl]piperidin-4-yl}-L-leucinate]: the values for the IC50 (in the experiment with U937 cells; in experiment [1]; in the experiment on HUT cells) were 331 to 3300 nM, > 1000 nM and > 3300 nM, respectively.
For the molecule `CC(C)C[C@H](NC1CCN(c2ccc(C(=O)NO)cc2)CC1)C(=O)O` [Example 49, N-{1-[4-(hydroxycarbamoyl)phenyl]piperidin-4-yl}-L-leucine], in experiment [1], the IC50 was > 1000 nM.
Consider `O=C(NO)c1ccc(N2CCC(CN[C@H](C(=O)OC3CCCC3)C3CCCCC3)CC2)cc1` [Example 50, Cyclopentyl (2S)-cyclohexyl[({1-[4-(hydroxycarbamoyl)phenyl]piperidin-4-yl}methyl)amino]acetate], for which the results for the IC50 (in the experiment on U937 cells; in experiment [1]; in the experiment with HUT cells) were > 3300 nM, > 1000 nM and > 3300 nM, respectively.
Take `O=C(NO)c1ccc(N2CCC(CN[C@H](C(=O)O)C3CCCCC3)CC2)cc1` [Example 51, (2S)-cyclohexyl[({1-[4-(hydroxycarbamoyl)phenyl]piperidin-4-yl}methyl)amino]acetic acid]: in experiment [1], the IC50 is > 1000 nM.
Consider `O=C(NO)c1ccc(N2CCC(CNCc3ccc(CN[C@H](C(=O)OC4CCCC4)C4CCCCC4)cc3)CC2)cc1` [Example 52, Cyclopentyl (2S)-cyclohexyl[(4-{[({1-[4-(hydroxycarbamoyl)phenyl]piperidin-4-yl}methyl)amino]methyl}benzyl)amino]acetate], for which the IC50 was 331 to 3300 nM in the experiment on U937 cells, > 1000 nM in experiment [1] and 331 to 3300 nM in the experiment on HUT cells.
In the case of `O=C(NO)c1ccc(N2CCC(CNCC3CCC(CN[C@H](C(=O)OC4CCCC4)C4CCCCC4)CC3)CC2)cc1` (stereo partly drawn) [Example 54, cyclopentyl (2S)-cyclohexyl{[(4-{[({1-[4-(hydroxycarbamoyl)phenyl]piperidin-4-yl}methyl)amino]methyl}cyclohexyl)methyl]amino}acetate], the IC50 in the experiment on U937 cells was 331 to 3300 nM; in experiment [1], > 1000 nM; in the experiment on HUT cells, 331 to 3300 nM.
`O=C(NO)c1ccc(N2CCC(CNCC3CCC(CN[C@H](C(=O)O)C4CCCCC4)CC3)CC2)cc1` (stereo partly drawn) [Example 55, (2S)-cyclohexyl{[(4-{[({1-[4-(hydroxycarbamoyl)phenyl]piperidin-4-yl}methyl)amino]methyl}cyclohexyl)methyl]amino}acetic acid]: in experiment [1], the IC50 was > 1000 nM.
